Source: PMC12521730, “Quantitative dual-isotope preclinical SPECT/CT imaging and biodistribution of the mercury-197m/g theranostic pair with [^197m/gHg]HgCl2 and a [^197m/gHg]Hg-tetrathiol complex as a platform for radiopharmaceutical development” (EJNMMI Radiopharmacy and Chemistry, 2025)
Entries after “also recorded” stand apart in the source; their conditions may differ.

Test: In vivo SPECT/CT imaging
Parameters: species or system healthy male C57BL/6 mice
Settings: for organs of tracer accumulation (qualitative): 0-2 h post injection
Protocol: For animal injection, the tracer was prepared at high molar activity. Radiolabeling of H4Tetrathiol (10^–2 M in DMSO; 40 μL for imaging, 20 μL for bioD) (or DMSO, for [^197m/gHg]HgCl2 mice) with [^197m/gHg]HgCl2 (imaging: 26.7 MBq total m + g, 62 μL; bioD: 13.04 MBq total m + g, 31 μL) was performed in a mixture of ammonium acetate buffer (1 M; pH 7; 198 μL for imaging or 149 μL for bioD) and 6 M NaOH (72 μL or 38 μL required to achieve a pH of 7.5 after addition of activity, for imaging or BioD labeling, respectively). The reaction was allowed to stand for 1 h at 37 °C and quantitative (> 99%) non-isolated percentage radiochemical yield (%RCY) was confirmed via the iTLC methods mentioned above. Further, 100 µL of the reaction was diluted with 50 µL of PBS Tween-20 (0.01 M sodium phosphate, 0.15 M NaCl, 0.05% Tween-20) for imaging mice, or 50 µL of the reaction was diluted with 100 µL of PBS Tween-20 for BioD mice. The tracers were prepared immediately before injection to avoid radiolysis and minimize the tracer loss to any surfaces due to its lipophilicity. The injected doses of each isomer, ^197mHg and ^197gHg, were quantified by measuring an aliquot of known volume of each tracer preparation via HPGe gamma spectroscopy and decay corrected for time of injection using the Eqs. (1) and (2).
The study was conducted in compliance with the guidelines set by the Canadian Council on Animal Care (CCAC) and approved by the Animal Care Committee (ACC) at the University of British Columbia (A20-0132). A total of eight healthy male C57BL/6 mice weighing approximately 30 g for group 1 and 25 g for group 2 were used in the study. The mice were divided into two experimental groups: group 1 (n = 4) received free [^197m/gHg]HgCl2, while group 2 (n = 4) received [^197m/gHg]Hg-Tetrathiol. Within each group, one mouse was allocated for imaging, while the rest were designated for ex vivo biodistribution analysis. For SPECT imaging, the designated mice were anesthetized using isoflurane via a precision vaporizer. […] Once anesthetized, each imaging mouse received an intravenous (IV) injection via the lateral tail vein of 150 μL of [^197m/gHg]HgCl2 (0.492 MBq ^197mHg + 3.171 MBq ^197gHg) or [^197m/gHg]Hg-Tetrathiol (0.899 MBq ^197mHg + 4.230 MBq ^197gHg) in PBS Tween-20 (0.01 M Na Phosphate, 0.15 M NaCl, 0.05% Tween-20).
The animals were immediately placed in the scanner and whole-body scans were acquired dynamically during 120 min post-injection (6 frames × 20 min/frame). Throughout the entire scanning procedure, mice were kept under isoflurane anesthesia and body temperature was maintained constant using a heated imaging bed. […] These energy window settings yielded the optimum, and most robust quantification results based on the phantom experiments (vide supra). […]

| Structure (SMILES) | organs of tracer accumulation (qualitative) | organs of tracer accumulation (qualitative) (listed as [^197m/gHg]Hg-tetrathiol) | blood clearance and excretion (qualitative) (compared with [197m/gHg]HgCl2) |
| --- | --- | --- | --- |
| O=C(CC[S-])OCC(COC(=O)CC[S-])(COC(=O)CC[S-])COC(=O)CC[S-].[Hg+2] [[^197m/gHg]Hg-Tetrathiol] | predominantly accumulates in the spleen and liver | tracer accumulation primarily in the liver and spleen | faster blood clearance and excretion through the reticuloendothelial system (RES) |
| [Cl][Hg][Cl] [[^197m/gHg]HgCl2] | primarily accumulating in the kidneys; also recorded: strong affinity for the kidneys | – | – |
